# Patent US8728797B2, “Yeast membrane protein expression system and its application in drug screening” (priority 2001, dated 2014)
# Marks after values point to notes of the source that are not given here.
# Experiments:
# C. glabrata CBS138 = test: Checkerboard chemosensitisation to fluconazole; type: cell-based
# Experimental: (§1) Checkerboard drug susceptibility assays were used to measure the chemosensitisation of cells to fluconazole by test compounds such as Pdr5p inhibitors. Fluconazole concentration in the CSM-URA medium was varied in one dimension (between 0 and 80 μg/ml) and the concentration of the test compound was varied in the second dimension (between 0 and 40 μM). Cell inocula, growth conditions and the optical determination of growth were identical to standard liquid MIC determinations. The assays were conducted in 6 by 6 well arrays centred in a 96 well microtitre plate using buffered CSM-URA medium at pH 7.0, with fluconazole and/or peptide included in each well at the indicated concentration.
# C. tropicalis IFO0618 = test: Checkerboard chemosensitisation to fluconazole; type: cell-based
# Experimental: as §1
# Cdr1p ATPase = target: T1, Cdr1p ATPase (Candida albicans, UniProt P43071, E1416A/I916V/K1177E/L1021S/Q214E/T842S/Y427F); test: Oligomycin sensitive ATPase/NTPase activity of AD1002 plasma membranes; type: biochemical, C. albicans
# T1 construct: expressed in transfected cells; host or cells: S. cerevisiae AD1-8u- with pKEN1002 integrated at the PDR5 locus (strain AD1002), plasma membrane fraction
# Experimental: Membrane fractions were isolated from S. cerevisiae AD1002 (▪) or parental AD1-8u^− cells (●). ATPase assays were carried out at 30° C. for 30 min, as described in Materials and methods for Example 2. The oligomycin-sensitive activity was determined as the difference in ATPase activity in the presence and absence of 20 μM oligomycin. […] The results are the means (+/−SD) of four determinations carried out on two membrane preparations.
# (B) Inhibition profile with KN20 on the oligomycin-sensitive Cdr1p ATPase activity of plasma membranes from AD1002 minus the oligomycin-sensitive ATPase activity of plasma membranes from the isogenic AD1-8u^− strain.
# (§2) Yeast were grown in YEPD, pH 5.5 at 30° C. until they reached late-exponential phase of growth (OD600 nm=7), washed twice in ice-cold distilled water, and incubated on ice for 30 min to minimize glucose-stimulated Pma1p activity. Cells were resuspended in homogenising medium (50 mM Tris pH 7.5, 2 mM EDTA and 1 mM phenylmethylsulfonyl fluoride) and disrupted using a Braun Homogeniser. Cell debris and unbroken cells were removed by centrifuging at 2,000×g at 4° C. for 10 min. A crude membrane fraction was isolated from the cell-free supernatant by centrifuging at 30,000×g at 4° C. for 45 min. Plasma membranes were prepared by centrifugation of the supernatant obtained after selective precipitation of mitochondria at pH 5.2 as described previously (Goffeau, A. and Dufour, J. P., 1988). The plasma membranes were resuspended in 10 mM Tris pH 7.0, 0.5 mM EDTA and 20% [v/v] glycerol and stored at −80° C. Protein was determined using a micro-Bradford (Bio-Rad Laboratories, Hercules, Calif. [Bradford, M. M., 1976]) assay with gamma-globulin as standard. Nucleotide triphosphatase activity was measured by incubating the plasma membrane fractions (10 μg) at 30° C. in a final volume of 120 μl containing 6 mM NTP, 7 mM MgSO4 in 59 mM MES-Tris buffer pH 6.0-8.0. To eliminate possible contributions from nonspecific phosphatases, vacuolar, or mitochondrial ATPases, 0.2 mM ammonium molybdate, 50 mM KNO3 and 10 mM NaN3, respectively, were included in assays (Monk B C, et al, 1991). Other ATPase inhibitors (20 μM oligomycin, 20 μM aurovertin B or 100 μM vanadate were added to the reaction where indicated. After 30 min the reaction was stopped by adding 130 μl of a solution containing 1% (w/v) SDS, 0.6 M H2SO4, 1.2% (w/v) ammonium molybdate and 1.6% (w/v) ascorbic acid. Inorganic phosphate released from NTPs was measured at 750 nm after 10 min incubation at room temperature.
# [1] = test system: S. cerevisiae AD124567 (Pdr5p); test: Checkerboard chemosensitisation to fluconazole; type: cell-based
# Experimental: (A) Checkerboard drug susceptibility assay of AD124567 in the presence of the indicated concentrations of fluconazole and KN20. (B) Disk drug susceptibility assay of AD124567. This assay was conducted, as described in Materials and methods for example 4, in the absence or presence of fluconazole (120 μg/ml), and in the presence of (1) KN0 (47 nanomole), (2) KN20 (47 nanomole) or (0) control amounts of DMSO applied to disks
# as §1
# [2] = test system: S. cerevisiae AD-ERG11 (Erg11p); test: Checkerboard chemosensitisation to fluconazole; type: cell-based
# Experimental: (§3) The assays were conducted, as described in Materials and methods for Example 4, in the presence of the indicated concentrations of fluconazole and KN20. D indicates cell death as measured by a failure to recover any colony forming units when samples from microtitre plate wells were cultured on solid YPD medium.
# as §1
# [3] = test system: S. cerevisiae AD-BEN^R (Ben^Rp); test: Checkerboard chemosensitisation to fluconazole; type: cell-based
# Experimental: as §3, §1
# C. albicans ATCC10261 = test: Checkerboard chemosensitisation to fluconazole; type: cell-based
# Experimental: (§4) (A) Checkerboard drug susceptibility assay of AD1002. This assay was conducted as described in Materials and methods in the presence of the indicated concentrations of fluconazole and KN20. (B) Disk drug susceptibility assay of AD1002. This assay was conducted, as described in Materials and methods for Example 4, in the absence or presence of 5 μg/ml fluconazole, with (1) KN0 (12 nanomole), (2) KN20 (12 nanomole) or (0) control amounts of DMSO applied to the disks. (C) Checkerboard drug susceptibility assay of ATCC 10261. This assay was conducted, as described in Material and methods for Example 4, in the presence of the indicated concentrations of fluconazole and KN20. D indicates cell death as measured by a failure to recover any colony forming units when samples from microtitre plate wells were cultured on solid YPD medium.
# as §1
# [4] = test system: S. cerevisiae AD1002 (CaCdr1p); test: Checkerboard chemosensitisation to fluconazole; type: cell-based
# Experimental: as §4, §1
# Pdr5p ATPase = target: T2, Pdr5p ATPase (Saccharomyces cerevisiae, UniProt P33302); test: Oligomycin sensitive ATPase activity of AD124567 plasma membranes; type: biochemical, S. cerevisiae
# T2 construct: plasma membranes from the AD124567 yeast strain overexpressing Pdr5p; endogenous in cells; host or cells: S. cerevisiae AD124567 (pdr1-3, PDR5 intact), plasma membrane fraction
# Experimental: (A) Inhibition profiles of oligomycin-sensitive Pdr5p ATPase activity by the purified peptides D-NH2-asparagine-tryptophan-tryptophan-lysine-valine-arginine-arginine-arginine-CONH2 (KN0) and its singly substituted Mtr-derivative KN20. (B) Inhibition profile with KN20 on the oligomycin-sensitive Cdr1p ATPase activity of plasma membranes from AD1002 minus the oligomycin-sensitive ATPase activity of plasma membranes from the isogenic AD1-8u^− strain.
# as §2, with “The plasma membranes were resuspended in 10 mM Tris pH 7.0, 0.5 mM EDTA and 20% [v/v] glycerol and stored at −80° C.” left out, “To eliminate possible contributions from nonspecific phosphatases, vacuolar, or mitochondrial ATPases, 0.2 mM ammonium molybdate, 50 mM KNO3 and 10 mM NaN3, respectively, were included in assays (Monk B C, et al, 1991).” left out
# T2 sequence (P33302 whole entry): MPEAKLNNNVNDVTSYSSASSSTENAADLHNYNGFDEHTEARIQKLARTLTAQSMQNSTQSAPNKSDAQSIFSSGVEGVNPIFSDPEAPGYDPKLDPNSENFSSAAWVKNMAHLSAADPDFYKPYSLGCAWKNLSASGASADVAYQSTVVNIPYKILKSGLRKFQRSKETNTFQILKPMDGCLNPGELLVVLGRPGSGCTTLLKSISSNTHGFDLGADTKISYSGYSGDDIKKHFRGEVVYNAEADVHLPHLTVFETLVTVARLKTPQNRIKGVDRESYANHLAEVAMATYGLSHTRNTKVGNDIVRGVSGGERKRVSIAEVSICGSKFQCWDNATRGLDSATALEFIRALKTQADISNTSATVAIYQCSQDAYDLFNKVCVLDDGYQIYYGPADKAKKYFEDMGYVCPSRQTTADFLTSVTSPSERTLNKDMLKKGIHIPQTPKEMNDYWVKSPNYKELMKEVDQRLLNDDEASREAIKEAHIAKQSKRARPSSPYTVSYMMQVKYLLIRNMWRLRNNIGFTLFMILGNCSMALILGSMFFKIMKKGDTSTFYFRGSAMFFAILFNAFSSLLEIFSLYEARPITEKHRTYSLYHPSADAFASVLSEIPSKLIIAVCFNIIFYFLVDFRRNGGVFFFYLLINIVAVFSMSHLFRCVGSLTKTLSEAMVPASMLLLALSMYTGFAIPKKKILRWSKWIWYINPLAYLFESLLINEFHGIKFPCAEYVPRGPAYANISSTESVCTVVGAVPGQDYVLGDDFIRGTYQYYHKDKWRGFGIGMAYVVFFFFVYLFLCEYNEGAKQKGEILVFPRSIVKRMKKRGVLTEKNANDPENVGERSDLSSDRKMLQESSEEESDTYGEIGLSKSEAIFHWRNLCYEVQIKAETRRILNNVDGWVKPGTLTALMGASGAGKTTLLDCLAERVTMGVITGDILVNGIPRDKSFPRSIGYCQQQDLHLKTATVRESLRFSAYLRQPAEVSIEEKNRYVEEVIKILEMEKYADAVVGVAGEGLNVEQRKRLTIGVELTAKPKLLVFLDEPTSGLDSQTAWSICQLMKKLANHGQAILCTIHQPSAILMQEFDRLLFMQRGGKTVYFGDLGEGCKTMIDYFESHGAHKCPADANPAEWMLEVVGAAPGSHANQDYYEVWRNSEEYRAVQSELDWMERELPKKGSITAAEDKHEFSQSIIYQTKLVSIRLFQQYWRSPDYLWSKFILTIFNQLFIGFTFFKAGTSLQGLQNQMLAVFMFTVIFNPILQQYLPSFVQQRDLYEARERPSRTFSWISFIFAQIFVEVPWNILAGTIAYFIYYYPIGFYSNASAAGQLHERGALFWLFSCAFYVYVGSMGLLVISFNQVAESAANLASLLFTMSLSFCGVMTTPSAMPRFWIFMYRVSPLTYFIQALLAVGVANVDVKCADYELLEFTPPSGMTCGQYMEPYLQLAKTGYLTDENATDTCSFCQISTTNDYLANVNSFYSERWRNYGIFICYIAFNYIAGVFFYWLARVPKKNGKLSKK
# T1 sequence (P43071 whole entry Q214E/Y427F/T842S/I916V/L1021S/K1177E/E1416A): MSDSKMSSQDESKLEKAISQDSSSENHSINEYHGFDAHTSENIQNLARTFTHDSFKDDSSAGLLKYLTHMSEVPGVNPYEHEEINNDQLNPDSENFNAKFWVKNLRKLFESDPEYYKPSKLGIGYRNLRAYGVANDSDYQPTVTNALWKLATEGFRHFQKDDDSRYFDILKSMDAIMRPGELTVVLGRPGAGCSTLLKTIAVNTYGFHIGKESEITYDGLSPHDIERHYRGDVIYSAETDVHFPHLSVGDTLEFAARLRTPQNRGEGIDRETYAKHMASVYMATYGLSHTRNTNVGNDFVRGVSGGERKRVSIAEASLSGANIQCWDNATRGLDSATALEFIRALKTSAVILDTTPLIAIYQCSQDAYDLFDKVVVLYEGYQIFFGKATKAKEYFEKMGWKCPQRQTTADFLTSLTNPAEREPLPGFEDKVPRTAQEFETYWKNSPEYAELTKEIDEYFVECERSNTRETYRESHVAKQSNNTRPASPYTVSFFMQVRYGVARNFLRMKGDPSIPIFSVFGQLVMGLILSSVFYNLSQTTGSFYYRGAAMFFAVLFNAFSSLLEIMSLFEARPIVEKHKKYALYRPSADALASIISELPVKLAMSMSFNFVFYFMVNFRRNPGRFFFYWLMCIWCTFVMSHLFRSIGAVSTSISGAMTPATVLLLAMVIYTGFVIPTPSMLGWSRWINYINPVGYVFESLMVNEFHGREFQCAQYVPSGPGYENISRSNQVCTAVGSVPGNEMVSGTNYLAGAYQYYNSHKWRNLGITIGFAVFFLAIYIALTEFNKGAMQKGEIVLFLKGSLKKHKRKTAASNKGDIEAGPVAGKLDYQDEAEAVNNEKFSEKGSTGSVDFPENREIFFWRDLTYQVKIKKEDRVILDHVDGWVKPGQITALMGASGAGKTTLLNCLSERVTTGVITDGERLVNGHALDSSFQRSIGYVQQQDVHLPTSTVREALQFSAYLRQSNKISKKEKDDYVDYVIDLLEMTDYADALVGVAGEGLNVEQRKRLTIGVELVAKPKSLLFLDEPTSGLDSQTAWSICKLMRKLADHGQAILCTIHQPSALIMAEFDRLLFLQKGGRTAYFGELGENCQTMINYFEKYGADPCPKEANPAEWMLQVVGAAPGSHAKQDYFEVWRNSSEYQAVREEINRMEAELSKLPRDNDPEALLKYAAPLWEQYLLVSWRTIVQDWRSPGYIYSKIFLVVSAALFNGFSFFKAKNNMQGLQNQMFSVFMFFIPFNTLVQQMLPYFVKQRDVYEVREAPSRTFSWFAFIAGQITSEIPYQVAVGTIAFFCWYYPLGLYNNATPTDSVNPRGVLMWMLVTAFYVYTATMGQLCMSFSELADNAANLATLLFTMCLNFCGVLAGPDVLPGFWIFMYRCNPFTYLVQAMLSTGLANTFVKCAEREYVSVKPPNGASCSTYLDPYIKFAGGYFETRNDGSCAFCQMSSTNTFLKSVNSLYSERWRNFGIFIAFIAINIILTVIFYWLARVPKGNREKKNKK
compound,measurement,setting,value
OC(Cn1cncn1)(Cn1cncn1)c1ccc(F)cc1F [fluconazole],Chemosensitising concentration FCZ,C. glabrata CBS138,20 µg/mL
same,Chemosensitising concentration FCZ,C. tropicalis IFO0618,10 µg/mL
same,effect on oligomycin sensitive Cdr1p ATPase activity,Cdr1p ATPase; in vitro,does not affect
same,Chemosensitising concentration FCZ,[1],60 µg/mL
same,Chemosensitising concentration FCZ,[2],0.25 µg/mL
same,Chemosensitising concentration FCZ,[3]; with KN20,3.75 µg/mL
same,Chemosensitising concentration FCZ,C. albicans ATCC10261,2 µg/mL
same,Chemosensitising concentration FCZ,"[4]; AD1002 (CaCdr1p), with KN20",10 µg/mL
same,effect on oligomycin sensitive Pdr5p ATPase activity,Pdr5p ATPase; in vitro,does not affect
"D-octapeptide NH2-Asn-Trp-Trp-Lys-Val-Arg-Arg-Arg-CONH2 with a single 4-methoxy-2,3,6-trimethylbenzenesulphonyl (Mtr) substituent on one tryptophan sidechain; Pdr5p inhibitor [KN20]",Chemosensitising concentration KN20,C. glabrata CBS138; C. glabrata CBS138,40 µM
same,Fold-sensitisation by KN20 (For FCZ MIC),C. glabrata CBS138; C. glabrata CBS138,4 fold
same,Chemosensitising concentration KN20,C. tropicalis IFO0618; C. tropicalis IFO0618,10 µM
same,Fold-sensitisation by KN20 (For FCZ MIC),"C. tropicalis IFO0618; C. tropicalis IFO0618, resistant tail eliminated",16^a fold
same,IC50,"Cdr1p ATPase; AD1002 plasma membranes, read-out: 150 for oligomycin sensitive ATPase activity",~8 µM
same,Chemosensitising concentration KN20,[1]; AD124567 (Pdr5p),20 µM
same,Fold-sensitisation by KN20 (For FCZ MIC),[1]; AD124567 (Pdr5p),10 fold
same,KN20 concentration that chemosensitised the Pdr5p overexpressing strain to fluconazole,[1]; pH 7,30 µM
same,Chemosensitising concentration KN20,[2]; AD-ERG11 (Erg11p),20 µM
same,Fold-sensitisation by KN20 (For FCZ MIC),[2]; AD-ERG11 (Erg11p),8 fold
same,Chemosensitising concentration KN20,[3],20 µM
same,Fold-sensitisation by KN20 (For FCZ MIC),[3],16 fold
same,Chemosensitising concentration KN20,C. albicans ATCC10261; C. albicans ATCC10261,80 µM
same,Fold-sensitisation by KN20 (For FCZ MIC),"C. albicans ATCC10261; C. albicans ATCC10261, resistant tail eliminated",64^a fold
same,growth of AD1002 with KN20 alone,"[4]; 10 μM KN20, without fluconazole, pH 7.0",completely resistant
same,growth of AD1002 with fluconazole plus KN20,[4]; 10 μg/ml fluconazole plus 10 μM KN20,completely abolished growth
same,growth of AD1002 with KN20 alone,"[4]; 20 μM peptide alone, 48 h",did not affect overall growth
same,Chemosensitising concentration KN20,[4]; AD1002 (CaCdr1p),10 µM
same,Fold-sensitisation by KN20 (For FCZ MIC),[4]; AD1002 (CaCdr1p),4 fold
same,IC50,"Pdr5p ATPase; plasma membranes from AD124567 overexpressing Pdr5p, pH 7.5, read-out: 150 for oligomycin sensitive ATPase activity",~3 µM
